Measured values from patent US10548829B2, “Oral care compositions and methods of use” (priority 2016, dated 2020).

Key:
[1] = tested on: Aggregatibacter actinomycetemcomitans; test: Growth inhibition (OD610), single culture; format: cell-based; conditions: Aggregatibacter actinomycetemcomitans
Protocol: (§1) Single species of Streptococcus gordonii (S. gordonii, S.g) strain V288 (ATCC #35105), Streptococcus sobrinus (S. sobrinus, S.$) strain SL1[CCM 6070, CNCTC 9/89] (ATCC #33478), or Aggregatibacter actinomycetemcomitans were analyzed. Also, a mixed culture containing Actinomyces viscosus (A. viscosus, A.v) strain (ATCC, #43146), Lactobacillus casei (L. casei, L.c) strain (ATCC #334), Streptococcus oralis (S. oralis, S. o) strain (ATCC #35037), Fusobacterium nucleatum (F. nucleatum, F. n) strain (ATCC #10953), and Veilonella parvula (V. parvula, V. p) strain (ATCC #17745) was also analyzed for growth inhibition/toxicity activity. Bacteria were cultured overnight in approximately 20 ml of BHI broth (BD, cat #237500) or maintained in a specialized complex modified BHI II medium in a continuous culture chemostat at 37° C. respectively. The following day, the OD610 were determined and solutions diluted to an OD610 of 0.2 or 0.1 respectively for the assay.
(§2) Triclosan (positive control) was prepared as a 10% stock in 100% EtOH and 3 fold serial dilutions were performed in 100% EtOH. An appropriate amount of the diluted samples was then transferred into a 96 well clear plate such that the resulting final concentration of the test samples ranged from either a 2 mM or 4 mM (highest concentration) to 0.0078 mM or 0.0156 mM (lowest concentration respectively) in 2% DMSO in 100 μl media per well. Triclosan (TCN) ranged from 0.01% to 1.67e-6% in 1% EtOH. For Zinc acetate, in order to mimic the 2:1 molar ratio (ligand:Zinc) in the Naringin:Zinc complex, the final concentration ranged from 0.7 mM to 0.0027 mM for samples with 2 mM as the highest concentration and 1.33 mM to […] for samples with 4 mM as the highest concentration in 2% DMSO. Next, 100 μl of bacterial culture at OD610 0.2 were introduced to the wells with the test samples. The wells were thoroughly mixed and incubated at 37° C. overnight. The plates were read using an Envision plate reader (PerkinElmer, Waltham, Mass.) at 610 nm.
(§3) The IC50 for the complex, Product 5, was determined for Streptococcus gordonii (S. gordonii), Streptococcus sobrinus (S. sobrinus), Aggregatibacter actinomycetemcomitans (A. actinomycetemcomitans), and also for the mixed bacterial culture. […] Triclosan (TCN) was included as a positive control for bacterial inhibition.
(§4) Further characterization was performed on planktonic oral microbes; Streptococcus sobrinus (Cariongenic—strain-SL1[CCM 6070, CNCTC 9/89] (ATCC cat. #33478), Streptococcus gordonii (Arginolytic—strain V288 (ATCC cat. #35105), Actinomyces viscosus) as well late colonizer (Gram −), pathogenic Aggregatibacter actinomycetemcomitans. All microbes were grown in their respective culture media: Streptococcus sobrinus and Streptococcus gordonii in BHI broth (BD, cat #237500), Aggregatibacter actinomycetemcomitans in BHI broth supplemented with 0.5% Yeast Extract (BD, cat #210941) and Actinomyces viscosus in Trypticase Soy Broth (BD, cat #211768) supplemented with 0.5% Yeast Extract (BD, cat #210941). Bacteria were cultured overnight in 37° C., 5% CO2 in approximately 20 ml of the appropriate culture broth. The following day, the OD610 was determined and solutions were diluted to 0.2 for the assay.
(§5) Triclosan (positive control) was prepared as a 10% stock in 100% EtOH and 3 fold serial dilutions were done in 100% EtOH. […] For Naringin+Zinc combination, while the highest total overall concentration was 2 mM, the exact concentration was Naringin (1.3 mM) and Zinc Acetate (0.7 mM) due to the compositions 2:1 molar ratio. For Zinc Acetate, in order to mimic the 2:1 ratio (ligand:Zinc) composition as in the complex, the final concentration ranged from 0.7 mM to 0.0027 mM in 2% DMSO.
(§6) A 100 μl aliquot of bacterial culture at OD610 0.2 were introduced to the wells with the test samples. The wells were thoroughly mixed and plates incubated overnight in a 37° C. incubator with or without 5% CO2 depending upon the bacterial species.

Streptococcus gordonii = test: Growth inhibition (OD610), single culture; format: cell-based; conditions: Streptococcus gordonii
Protocol: as §1, §2, §3, §4, §5, §6

Streptococcus sobrinus = test: Growth inhibition (OD610), single culture; format: cell-based; conditions: Streptococcus sobrinus
Protocol: as §1, §2, §3, §4, §5, §6

[2] = Growth inhibition (OD610), mixed chemostat culture; format: cell-based, A. viscosus, L. casei, S. oralis, F. nucleatum, V. parvula
Protocol: as §1, §2, §3
(§7) Antimicrobial characterization was also performed on mixed culture solutions having at least five microbial species present. A mixed culture containing Actinomyces viscosus (A. viscosus, A.v) (ATCC, #43146), Lactobacillus casei (L. casei, L.c) (ATCC #334), Streptococcus oralis (S. oralis, S.o) (ATCC #35037), Fusobacterium nucleatum (F. nucleatum, F.n) (ATCC #10953) and Veilonella parvula (V. parvula, V.p) (ATCC #17745) was maintained in a specialized complex medium (Modified BHI II Medium) in a continuous culture chemostat at 37° C. Approximately 10 ml of the culture was removed and the OD610 was determined. The assay was performed using cultures at two concentrations; 0.03 and 0.1 at OD610. […] Triclosan (positive control) was prepared as a 10% stock in 100% EtOH and 3 fold serial dilutions were performed in 100% EtOH. […] For Zinc Acetate, in order to mimic the 2:1 ratio (ligand:Zinc) composition as in the complex, the final concentration range from 0.7 mM to 0.0027 mM in 2% DMSO was used instead.
(§8) A 100 μl of bacterial culture at chosen OD610 (0.03 or 0.1) was introduced into the wells with the test samples. The wells were thoroughly mixed and plates incubated overnight in a 37° C. incubator with or without 5% CO2. After approximately 12-13 hours of treatment, the plate was read using Envision plate reader (Serial #1040984), absorbance at 610 nm. The % inhibition relative to control was determined as described for previously described antimicrobial protocols, supra.

[3] = tested on: mixed culture containing Actinomyces viscosus, Lactobacillus casei, Streptococcus oralis, Fusobacterium nucleatum and Veilonella parvula; test: Growth inhibition (OD610), mixed chemostat culture; format: cell-based, A. viscosus, L. casei, S. oralis, F. nucleatum, V. parvula; conditions: mixed species cultures; 1% EtOH; data not shown
Protocol: as §1, §2, §3, §7, §8

[4] = tested on: planktonic oral bacterial species (S. sobrinus, S. gordonii, A. actinomycetemcomitans, A. viscosus, mixed cultures); test: Growth inhibition, summary statements over the single, co- and mixed cultures tested; format: cell-based, oral bacteria
Protocol: as §1, §2, §3, §4, §5, §6

Structure (SMILES): Oc1cc(Cl)ccc1Oc1ccc(Cl)cc1Cl [TCN, Triclosan]
- IC50 [1]: 0.61 ± 0.46 µM
- IC50 (Streptococcus gordonii): 6 ± 0.85 µM
- IC50 (Streptococcus sobrinus): 6 ± 1.7 µM
- IC50 ([2]; Mixed Species (aerobic)): 7.6 µM
- IC50 ([2]; Mixed Species (anaerobic)): 4.8 µM
- IC50 of positive control, range in ppm [3]: 1.4-2.2 ppm
- IC50 range over cultures tested, corresponding ppm ([4]; S. sobrinus, S. gordonii, A. actinomycetemcomitans and mixed chemostat cultures): 0.18-2.2 ppm
- IC50 ([4]; read-out: concentration that inhibited 50% of the bacterial growth (IC50), range over cultures tested): 0.61 to 7.6 µM
- IC50 of positive control, range in ppm ([4]; same species of bacteria cultures (single and co-cultures), 1% EtOH): 1-2.7 ppm
